Reference: PMC8537445, “D-Peptide-Based Probe for CXCR4-Targeted Molecular Imaging and Radionuclide Therapy” (Pharmaceutics, 2021)
Read-outs that look alike come from different tables or passages of the source. Positions of bridges follow the written chain, without caps; N, C: chain ends. Non-standard residues stand in square brackets, D forms with d. Residues, ends and D or L forms follow the SMILES beside them. Groups on a side chain read outwards from the residue. Chains are numbered I, II in the order given. *: point of attachment. DOTA = O=C(O)CN1CCN(CC(=O)O)CCN(CC(=O)*)CCN(CC(=O)O)CC1; 2Nal = N[C@@H](Cc1ccc2ccccc2c1)C(=O)O; dNMeOrn = CN[C@H](CCCN)C(=O)O; 4Amb = NCc1ccc(C(=O)O)cc1

Columns and labels:
[1] = target: T1, murine CXCR4 (mCXCR4) (Mus musculus, UniProt P70658); assay: Competition binding with fluorescent murine CXCL12^AF647 on U87.mCXCR4 cells (flow cytometry)
T1 construct: expressed in transfected cells; host or cells: U87 human glioblastoma cells, stably transfected
Experimental: Competition binding studies (IC50) were performed as described using either Jurkat cells and human CXCL12^AF647 (Almac, UK) as fluorescent ligand or U87.mCXCR4 cells and murine CXCL12^AF647 (Almac, UK) as fluorescent ligand. […] IC50-values were calculated using nonlinear regression (four parameters) in GraphPad Prism 9 (Graph Pad Software, San Diego, CA, USA) based on three biological replicates for each concentration tested.

[2] = Stability of the peptide in standard labeling conditions (LC-HRMS); assay type: physicochemical; settings: aqueous buffer pH 4, 1 h at 95 °C
Experimental: First, we successfully confirmed previously reported IC50-values of DV1, DV3 and DV1-k-(DV3) for hCXCR4 in an in vitro binding assay (Table 1) and we assessed the stability of the bivalent peptide DV1-k-(DV3) in standard labeling conditions (aqueous buffer pH 4, 1 h at 95 °C).

[3] = target: T2, hCXCR4-expressing U87 cells (U87.hCXCR4) (Homo sapiens, UniProt P61073); assay: Binding and internalization assay on U87.hCXCR4 cells; assay type: cell-based; settings: AMD3100 100 µM
T2 construct: expressed in transfected cells; host or cells: U87 human glioblastoma cells, stably transfected
Experimental: Cellular uptake and internalization of [^18F]AlF-NOTA-DV1-k-(DV3), [^68Ga]Ga-DOTA-DV1-k-(DV3) and [^177Lu]Lu-DOTA-DV1-k-(DV3) (11, 17 and 7 nM respectively) into U87.hCXCR4 cells (2.5 × 10^5 cells) were investigated and compared with [^68Ga]PentixaFor (6 nM) as control. […] After incubation, the supernatant was removed and combined with 3 mL of ice-cold PBS used for rinsing the cells (unbound fraction). Subsequently, cells were incubated twice with 50 mM Glycine-HCl pH 2.8 for 5 min at room temperature, followed by one washing step with ice-cold PBS (membrane-bound fraction). Then, cells were lysed using 350 µL of reagent A100 (Chemometec, Allerod, Denmark). Reagent B (Chemometec, Allerod, Denmark) was used for rinsing the wells and to quench the lysing of the cells. Quantification of the amount of bound and internalized activity was performed using an automated gamma counter. The number of cells per well was counted using an automated counting device (NucleoCounter® NC-100™, Chemometec, Allerod, Denmark). Results were expressed as percentage of applied radioactivity bound to 2.5 × 10^5 cells.

[4] = Ex vivo biodistribution in wild-type mice; settings: mouse, total radioactivity, 75 min p.i., ex vivo gamma counting, mean ± SD
Experimental: The in vivo pharmacokinetics of the selected radioligands were first evaluated in wild-type mice by performing a whole-body biodistribution study. […] Blood and major organs were collected in tared tubes and weighed. Quantification of radioactivity in blood, organs, and other body parts was performed using an automated gamma counter equipped with a 3-inch NaI(Tl) well crystal coupled to a multichannel analyzer, mounted in a sample changer (2480 Wizard^2, Perkin Elmer, Waltham, MA, USA). Counts were corrected for background radiation, physical decay and counter dead time. Results are presented as standardized uptake values (SUV; tissue activity concentration (MBq/g)/[injected dose (MBq)/body weight (g)]).

[5] = in vivo; settings: female, SCID (CB17.Cg-Prkdc<scid>Lyst<bg-J>/Crl), mouse, tumor, iv, total radioactivity
Experimental: The subcutaneous tumor xenograft model was prepared using a published procedure [21]. Briefly, 1 × 10^6 U87.hCXCR4 cells mixed with Cultrex (1:1; Cultrex Basement Membrane Extract, R&D systems, Minneapolis, MN, USA) were implanted subcutaneously into the right shoulder of female 10-week-old SCID mice (CB17.Cg-PrkdcLyst<bg-J>/Crl; Charles River Laboratories, Sulzfeld, Germany). After an average of four weeks, the animals were used in biodistribution and PET/computed tomography (CT) imaging studies. Tumor volumes ranged from 150–574 mm^3 (measured by caliper, h × l × w), while the tumor mass-to-body weight ratio was 0.14–2.34%.
Dynamic PET images were acquired for 60 min immediately after intravenous injection using a beta-cube PET scanner (Molecubes, Gent, Belgium). The mice were kept under gas anesthesia during the entire procedure (2.5% isoflurane in O2 at 1 L/min flow rate), with temperature and respiration monitored throughout. […]
PET data were histogrammed into 14 frames (4 × 15 s, 4 × 1 min, 1 × 5 min, 5 × 10 min) and reconstructed into a 192 × 192 image matrix with 0.4 mm voxels using 30 iterations the native MLEM algorithm with corrections for randoms, scatter, attenuation and decay. […] Radiotracer uptake at 60 min, expressed as SUVmean, was the outcome measure.

[6] = Stability in human serum (radioHPLC); assay type: in vitro ADME; settings: male, human serum (H4522 human male AB plasma), 5-fold dilution in human serum, 9 days at 37 °C, read-out: intact radioligand in human serum
Experimental: Formulated solutions of [^18F]AlF-NOTA-DV1-k-(DV3) and [^68Ga]Ga-DOTA-DV1-k-(DV3) were evaluated by radioHPLC 5 h and 2 h after radiosynthesis, respectively. In addition, 5-fold dilutions in human serum (H4522 human male AB plasma, USA origin, sterile-filtered, Sigma Aldrich, Saint Louis, MO, USA) were incubated at 37 °C for 2 h and analyzed using radioHPLC.
A formulated solution of [^177Lu]Lu-DOTA-DV1-k-(DV3) was evaluated by radioHPLC after 9 days of storage at 4 °C. A 5-fold dilution of [^177Lu]Lu-DOTA-DV1-k-(DV3) in human serum (H4522 human male AB plasma, USA origin, sterile-filtered, Sigma Aldrich, Saint Louis, MO, USA) was incubated at 37 °C for 9 days and analyzed by radioHPLC.

T1 sequence (P70658 whole entry): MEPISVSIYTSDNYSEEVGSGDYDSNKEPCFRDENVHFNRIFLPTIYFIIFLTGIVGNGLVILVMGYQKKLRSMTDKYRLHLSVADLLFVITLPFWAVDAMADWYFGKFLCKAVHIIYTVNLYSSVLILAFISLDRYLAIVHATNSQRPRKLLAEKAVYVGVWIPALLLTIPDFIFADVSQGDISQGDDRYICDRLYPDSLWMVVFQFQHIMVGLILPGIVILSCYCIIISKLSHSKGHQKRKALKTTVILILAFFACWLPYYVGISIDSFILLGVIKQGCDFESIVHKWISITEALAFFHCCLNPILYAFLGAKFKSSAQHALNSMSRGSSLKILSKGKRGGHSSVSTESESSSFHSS
T2 sequence (P61073 whole entry): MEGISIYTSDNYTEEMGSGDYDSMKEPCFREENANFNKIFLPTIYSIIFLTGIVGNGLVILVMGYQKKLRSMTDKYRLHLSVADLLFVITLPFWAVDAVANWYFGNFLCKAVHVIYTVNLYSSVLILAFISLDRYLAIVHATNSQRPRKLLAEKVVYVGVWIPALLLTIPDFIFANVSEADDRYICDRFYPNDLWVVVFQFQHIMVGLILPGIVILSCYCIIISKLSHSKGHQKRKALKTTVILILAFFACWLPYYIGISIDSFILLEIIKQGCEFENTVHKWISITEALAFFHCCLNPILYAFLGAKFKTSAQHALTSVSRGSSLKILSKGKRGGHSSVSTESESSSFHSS

Q: Which IC50 ([1]; murine CXCL12^AF647 as fluorescent ligand, mean ± SD, n = 3, read-out: IC50 [nM] to mCXCR4) does the source give for c1cc(CN2CCCNCCNCCCNCC2)ccc1CN1CCCNCCNCCCNCC1 [AMD3100] here?
A: The IC50 was 123 ± 17 nM.

Q: With CC(C)C[C@@H](N)C(=O)NCC(=O)N[C@H](C)C(=O)N[C@H](CO)C(=O)N[C@H](Cc1c[nH]c2ccccc12)C(=O)N[C@H](Cc1c[nH]cn1)C(=O)N[C@H](CCCNC(=N)N)C(=O)N1CCC[C@@H]1C(=O)N[C@H](CC(=O)O)C(=O)N[C@H](CCCCN)C(=O)NCCCC[C@@H](NC(=O)[C@H]1CCCN1C(=O)[C@@H](CC(C)C)NC(=O)[C@H]1CCCN1C(=O)[C@@H](CCCNC(=N)N)NC(=O)[C@@H](CCCCN)NC(=O)[C@@H](CCC(N)=O)NC(=O)[C@@H](Cc1ccc(O)cc1)NC(=O)CNC(=O)[C@@H](CC(C)C)NC(=O)[C@@H](CS)NC(=O)[C@@H](CS)NC(=O)[C@@H](CCCCN)NC(=O)[C@@H](CC(=O)O)NC(=O)[C@H]1CCCN1C(=O)[C@@H](CCCNC(=N)N)NC(=O)[C@@H](Cc1c[nH]cn1)NC(=O)[C@@H](Cc1c[nH]c2ccccc12)NC(=O)[C@@H](CO)NC(=O)[C@@H](C)NC(=O)CNC(=O)[C@H](N)CC(C)C)C(=O)O [DV1-k-(DV3)] (I: H-[dL]G[dA][dS][dW][dH][dR][dP][dD][dK][dC][dC][dL]G[dY][dQ][dK][dR][dP][dL][dP][dK]-OH / II: H-[dL]G[dA][dS][dW][dH][dR][dP][dD][dK]; amide I:22-II:C) as the compound, how does the “stability in standard labeling conditions” value [2] read?
A: The value was “No degradation products were detected”.

Q: What does the source list for CN1C(=O)[C@@H](Cc2ccc(O)cc2)NC(=O)CNC(=O)[C@H](Cc2ccc3ccccc3c2)NC(=O)[C@H](CCCNC(=N)N)NC(=O)[C@H]1CCCNC(=O)c1ccc(CNC(=O)CN2CCN(CC(=O)O)CCN(CC(=O)O)CCN(CC(=O)O)CC2)cc1 [[^68Ga]PentixaFor, metal not drawn] (cyclo([dY][dNMeOrn]([4Amb-DOTA])R[2Nal]G))?
A: blocking of cellular uptake by excess AMD3100 [3]: completely blocked; SUV at 1.25 h ([4]; blood, + AMD3100 5 mg/kg, n: PentixaFor 1, 18F 2, 68Ga 4, 177Lu 3, read-out: blood uptake): 0.5 SUV; SUV at 1.25 h ([4]; blood, tracer alone, n: PentixaFor 3, 18F 5, 68Ga 4, 177Lu 3, read-out: blood uptake): 0.6 ± 0.1 SUV; SUV at 1.25 h ([4]; bone (femur harboring bone marrow), tracer alone, n: PentixaFor 3, 18F 5, 68Ga 4, 177Lu 3, read-out: bone uptake (femur harboring bone marrow)): 0.2 ± 0.01 SUV; SUV at 1.25 h ([4]; brain, + AMD3100 5 mg/kg, n: PentixaFor 1, 18F 2, 68Ga 4, 177Lu 3, read-out: brain uptake): 0.02 SUV; SUV at 1.25 h ([4]; brain, tracer alone, n: PentixaFor 3, 18F 5, 68Ga 4, 177Lu 3, read-out: brain uptake): 0.03 ± 0.01 SUV; SUV at 1.25 h ([4]; heart, + AMD3100 5 mg/kg, n: PentixaFor 1, 18F 2, 68Ga 4, 177Lu 3, read-out: heart uptake): 0.3 SUV; SUV at 1.25 h ([4]; heart, tracer alone, n: PentixaFor 3, 18F 5, 68Ga 4, 177Lu 3, read-out: heart uptake): 0.3 ± 0.02 SUV; SUV at 1.25 h ([4]; kidneys, tracer alone, n: PentixaFor 3, 18F 5, 68Ga 4, 177Lu 3, read-out: kidneys uptake): 1.9 ± 1.1 SUV; SUV at 1.25 h ([4]; liver, + AMD3100 5 mg/kg, n: PentixaFor 1, 18F 2, 68Ga 4, 177Lu 3, read-out: liver uptake): 0.5 SUV; SUV at 1.25 h ([4]; liver, tracer alone, n: PentixaFor 3, 18F 5, 68Ga 4, 177Lu 3, read-out: liver uptake): 0.6 ± 0.1 SUV; SUV at 1.25 h ([4]; lungs, + AMD3100 5 mg/kg, n: PentixaFor 1, 18F 2, 68Ga 4, 177Lu 3, read-out: lungs uptake): 0.7 SUV; SUV at 1.25 h ([4]; lungs, tracer alone, n: PentixaFor 3, 18F 5, 68Ga 4, 177Lu 3, read-out: lungs uptake): 0.7 ± 0.1 SUV; SUV at 1.25 h ([4]; muscle, + AMD3100 5 mg/kg, n: PentixaFor 1, 18F 2, 68Ga 4, 177Lu 3, read-out: muscle uptake): 0.2 SUV; SUV at 1.25 h ([4]; muscle, tracer alone, n: PentixaFor 3, 18F 5, 68Ga 4, 177Lu 3, read-out: muscle uptake): 0.2 ± 0.03 SUV; SUV at 1.25 h ([4]; pancreas, + AMD3100 5 mg/kg, n: PentixaFor 1, 18F 2, 68Ga 4, 177Lu 3, read-out: pancreas uptake): 0.3 SUV; SUV at 1.25 h ([4]; pancreas, tracer alone, n: PentixaFor 3, 18F 5, 68Ga 4, 177Lu 3, read-out: pancreas uptake): 0.3 ± 0.1 SUV; SUV at 1.25 h ([4]; spleen, + AMD3100 5 mg/kg, n: PentixaFor 1, 18F 2, 68Ga 4, 177Lu 3, read-out: spleen uptake): 0.3 SUV; SUV at 1.25 h ([4]; spleen, tracer alone, n: PentixaFor 3, 18F 5, 68Ga 4, 177Lu 3, read-out: spleen uptake): 0.3 ± 0.02 SUV; SUV at 1 h [5]: 2.9 SUV

Q: Which remaining at 216 h [6] does the source give for CC(C)C[C@@H](N)C(=O)NCC(=O)N[C@H](C)C(=O)N[C@H](CO)C(=O)N[C@H](Cc1c[nH]c2ccccc12)C(=O)N[C@H](Cc1c[nH]cn1)C(=O)N[C@H](CCCNC(=N)N)C(=O)N1CCC[C@@H]1C(=O)N[C@H](CC(=O)O)C(=O)N[C@H](CCCCNC(=O)CN1CCN(CC(=O)O)CCN(CC(=O)O)CCN(CC(=O)O)CC1)C(=O)NCCCC[C@@H](NC(=O)[C@H]1CCCN1C(=O)[C@@H](CC(C)C)NC(=O)[C@H]1CCCN1C(=O)[C@@H](CCCNC(=N)N)NC(=O)[C@@H](CCCCN)NC(=O)[C@@H](CCC(N)=O)NC(=O)[C@@H](Cc1ccc(O)cc1)NC(=O)CNC(=O)[C@@H](CC(C)C)NC(=O)[C@@H](CS)NC(=O)[C@@H](CS)NC(=O)[C@@H](CCCCN)NC(=O)[C@@H](CC(=O)O)NC(=O)[C@H]1CCCN1C(=O)[C@@H](CCCNC(=N)N)NC(=O)[C@@H](Cc1c[nH]cn1)NC(=O)[C@@H](Cc1c[nH]c2ccccc12)NC(=O)[C@@H](CO)NC(=O)[C@@H](C)NC(=O)CNC(=O)[C@H](N)CC(C)C)C(=O)O [[^177Lu]Lu-DOTA-DV1-k-(DV3), metal not drawn] (I: H-[dL]G[dA][dS][dW][dH][dR][dP][dD][dK][dC][dC][dL]G[dY][dQ][dK][dR][dP][dL][dP][dK]-OH / II: H-[dL]G[dA][dS][dW][dH][dR][dP][dD][dK](DOTA); amide I:22-II:C) here?
A: Its remaining at 216 h is over 98%.

Q: For CN1C(=O)[C@@H](Cc2ccc(O)cc2)NC(=O)CNC(=O)[C@H](Cc2ccc3ccccc3c2)NC(=O)[C@H](CCCNC(=N)N)NC(=O)[C@H]1CCCNC(=O)c1ccc(CNC(=O)CN2CCN(CC(=O)O)CCN(CC(=O)O)CCN(CC(=O)O)CC2)cc1 [[^natGa]PentixaFor, metal not drawn] (cyclo([dY][dNMeOrn]([4Amb-DOTA])R[2Nal]G)), which IC50 ([1]; read-out: IC50 [nM] to mCXCR4, murine CXCL12^AF647 as fluorescent ligand, mean ± SD, n = 3) is on record?
A: Its IC50 is over 1000 nM.
